According to patent publication US10479810B2, “Crystal form of tenofovir alafenamide salt, preparation method and use thereof” (SHANGHAI BEGREAT PHARMATECH, priority 2016, dated 2019):
Where two headings read alike, the source gives them in different places.

Details: for TAF total degradation impurities %: mixtures with emtricitabine at weight ratio about 1:15, HPLC
Description: In this patent, TAF fumarate crystal form I (prepared according to the method of WO2013025788A1), TAF fumarate crystal form II, TAF fumarate crystal form A and TAF fumarate crystal form B and emtricitabine are compared. The mixture was mixed at a weight ratio of about 1:15, placed at 40° C. and a relative humidity of 75%, and placed open for 21 days. The degradation of TAF was analyzed by HPLC at 0 days and 21 day.

| Compound | chemical compatibility of TAF with emtricitabine (compared with TAF hemifumarate crystal form I in combination with emtricitabine) | TAF total degradation impurities % (0 day) [%] | TAF total degradation impurities % (21 day, 40° C., relative humidity 75%, placed open) [%] |
| --- | --- | --- | --- |
| CC(C)OC(=O)[C@H](C)N[P@](=O)(CO[C@H](C)Cn1cnc2c(N)ncnc21)Oc1ccccc1.O=C(O)/C=C/C(=O)O [TAF fumarate Form II, 9-[(R)-2-[[(S)-[[(S)-1-(isopropoxycarbonyl)ethyl]amino]phenoxyphosphinyl]methoxy]propyl]adenine fumarate] | significantly improve |  |  |
| Tenofovir alafenamide hemifumarate [TAF fumarate Form I] |  | 0.1 | 0.9 |
